According to patent publication US8293682B2, “Growth regulators for gramineous weeds” (Rikengreen Co., Ltd., priority 2008, dated 2012):

Key:
Assay type in all cases: in vivo
[1] = test system: southern crabgrasses (Digitaria ciliaris Koel.); assay: Test Example 5: field test in Manilagrass turf, inhibitory effect for ear emergence; conditions: Ethephon 50 mg a.i./m^2
Protocol: In a Manilagrass (Zoysia matrella) turf where southern crabgrasses (Digitaria ciliaris Koel.) were grown, a test zone of 1 m×1 m was provided. Benzyladenine (Beanine for painting; made by Rikengreen; containing 1% benzyladenine) and ethephon (Ethrel 10 soluble concentrate; Nissan Chemical Industries; containing 10% ethephon) were diluted in a predetermined amount of water. The respectively diluted solutions were applied to each test zone at the first application (Day 0) at a dose as indicated in Table, and after a lapse of 17 days the second application was carried out. The first application was conducted before the ear emergence of southern crabgrasses (Digitaria ciliaris Koel.). The amount of solution scattered was 150 mL/m^2 both in the first and second applications. The inhibitory effect for the ear emergence of southern crabgrasses (Digitaria ciliaris Koel.) within the area of 1 m×1 m was evaluated according to the standard as described in Table 7. […] The symbol “●” in Table 8 indicates the treatment with each agent, and “−” means untreated. Dose means the amount at a single application.

[2] = test system: annual bluegrass (Poa annua L.); assay: Test Example 4: field test in bent green turf, emerged ear number; conditions: applied Day 0 and after 30 days
Protocol: In a bent green turf where annual bluegrasses (Poa annua L.) were grown, a test zone of 1 m×1 m was provided. Benzyladenine (Beanine for painting; made by Rikengreen; containing 1% benzyladenine) and ethephon (Ethrel 10 soluble concentrate; Nissan Chemical Industries; containing 10% ethephon) were diluted in a predetermined amount of water, and a spreader (Riken Sprayzer (registered trade mark); made by Rikengreen) was added so as to be 1/1,000-fold concentration. The respectively diluted solutions were applied to each test zone at the first application (Day 0) at a dose as indicated in Table, and after a lapse of 30 days the second application was carried out. The amount of solution scattered was 100 mL/m^2 both in the first and second applications. The number of ear emergence of annual bluegrass (Poa annua L.) within the area of 10×10 cm was counted at regular intervals at 3 spots per zone. […] Dose means the amount at a single application.

[3] = test system: annual bluegrass (Poa annua L.); assay: Test Example 2: count of ear emergence, poly-cup, applications at intervals / alternate application; conditions: Ethephon 40 mg a.i./m^2 applied Day 10
Protocol: At the initial stage of the ear emergence of annual bluegrass (Poa annua L.) grown in a poly-cup of 11 cm×11 cm, benzyladenine (Beanine for painting; made by Rikengreen; containing 1% benzyladenine) and/or ethephon (Ethrel 10 soluble concentrate; Nissan Chemical Industries; containing 10% ethephon) were diluted in a predetermined amount of water, and a spreader (Riken Sprayzer (registered trade mark); made by Rikengreen) was added so as to be 1/1,000-fold concentration; the respectively diluted solutions were applied by atomization at a dose and intervals as indicated in Table (scattered solution: 200 mL/m^2), and the number of emerged ears of annual bluegrass (Poa annua L.) in the cup was counted through time. The test was carried out serially. […] The symbol “●” in Table indicates the treatment with benzyladenine, “◯” the treatment with ethephon, and “−” untreated. Dose means the amount at a single application.

[4] = test system: annual bluegrass (Poa annua L.); assay: Test Example 3: number of emerged ears and leaves, poly-cup, two applications; conditions: 2nd application after 29 days
Protocol: At the initial stage of the ear emergence of annual bluegrass (Poa annua L.) grown in a poly-cup of 11 cm×11 cm, benzyladenine (Beanine for painting; made by Rikengreen; containing 1% benzyladenine) and ethephon (Ethrel 10 soluble concentrate; Nissan Chemical Industries; containing 10% ethephon) were diluted in a predetermined amount of water, and a spreader (Riken Sprayzer (registered trade mark); made by Rikengreen) was added so as to be 1/1,000-fold concentration; the respectively diluted solutions were applied by atomization at a dose as indicated in Table (scattered solution: 200 mL/m^2), and after a lapse of 29 days, the 2nd application was carried out. Then, the number of emerged ears of annual bluegrass (Poa annua L.) in the cup was counted. Further, the number of leaves [Leaf] of annual bluegrass (Poa annua L.) was counted within the area of 6 cm×6 cm in the cup. The test was carried out serially. […] Dose means the amount at a single application.

[5] = Day 46, Benzyladenine + Ethephon 0 + 20 mg a.i./m^2
[6] = Day 46, Benzyladenine + Ethephon 0 + 40 mg a.i./m^2
[7] = Day 46, Benzyladenine + Ethephon 0 + 80 mg a.i./m^2

## O=P(O)(O)CCCl [Ethephon, 2-chloroethylphosphonic acid]
[1]; Day 18, applied Day 0
  Evaluation: index of inhibitory effect for ear emergence: 2 (20% or more-less than 30%)
[1]; Day 26, applied Day 0
  Evaluation: index of inhibitory effect for ear emergence: 3 (30% or more-less than 40%)
[1]; Day 26, applied Day 0 and Day 17
  Evaluation: index of inhibitory effect for ear emergence: 4 (40% or more-less than 50%)
[1]; Day 33, applied Day 0
  Evaluation: index of inhibitory effect for ear emergence: 1 (10% or more-less than 20%)
[1]; Day 33, applied Day 0 and Day 17
  Evaluation: index of inhibitory effect for ear emergence: 5 (50% or more-less than 60%)
[1]; Day 41, applied Day 0
  Evaluation: index of inhibitory effect for ear emergence: 1 (10% or more-less than 20%)
[1]; Day 41, applied Day 0 and Day 17
  Evaluation: index of inhibitory effect for ear emergence: 2 (20% or more-less than 30%)
[2]; Day 22, Ethephon 80, Benzyladenine 0 mg a.i./m^2
  Ear (mean emerged ear number within 10×10 cm): 53.7
[2]; Day 22, Ethephon 160, Benzyladenine 0 mg a.i./m^2
  Ear (mean emerged ear number within 10×10 cm): 25.0
[2]; Day 41, Ethephon 80, Benzyladenine 0 mg a.i./m^2
  Ear (mean emerged ear number within 10×10 cm): 57.3
[2]; Day 41, Ethephon 160, Benzyladenine 0 mg a.i./m^2
  Ear (mean emerged ear number within 10×10 cm): 24.3
[2]; Day 61, Ethephon 80, Benzyladenine 0 mg a.i./m^2
  Ear (mean emerged ear number within 10×10 cm): 68.7
[2]; Day 61, Ethephon 160, Benzyladenine 0 mg a.i./m^2
  Ear (mean emerged ear number within 10×10 cm): 59.0
[3]; Day 25
  Count of ear emergence: 35
[3]; Day 33
  Count of ear emergence: 27
[4]; Day 23, Benzyladenine + Ethephon 0 + 20 mg a.i./m^2
  Ear (number of emerged ears in the cup): 30
[4]; Day 23, Benzyladenine + Ethephon 0 + 40 mg a.i./m^2
  Ear (number of emerged ears in the cup): 23
[4]; Day 23, Benzyladenine + Ethephon 0 + 80 mg a.i./m^2
  Ear (number of emerged ears in the cup): 13
[4]; [5]
  Ear (number of emerged ears in the cup): 34
  [Leaf] (number of leaves within 6 cm×6 cm): [90]
[4]; [6]
  Ear (number of emerged ears in the cup): 27
  [Leaf] (number of leaves within 6 cm×6 cm): [88]
[4]; [7]
  Ear (number of emerged ears in the cup): 29
  [Leaf] (number of leaves within 6 cm×6 cm): [79]
[4]; Day 53, Benzyladenine + Ethephon 0 + 20 mg a.i./m^2
  Ear (number of emerged ears in the cup): 34
[4]; Day 53, Benzyladenine + Ethephon 0 + 40 mg a.i./m^2
  Ear (number of emerged ears in the cup): 30
[4]; Day 53, Benzyladenine + Ethephon 0 + 80 mg a.i./m^2
  Ear (number of emerged ears in the cup): 41
